pIC50: −log10 of the molar value.
How the values were obtained:
Format in all cases: cell-based
human TLR9 = molecular target: T1, human TLR9 (Homo sapiens, UniProt Q9NR96); test: TLR9 inhibition reporter assay (HEK-Blue cells, SEAP reporter, ODN2006 stimulation); settings: HEK-Blue cells overexpressing human TLR9, SEAP reporter, ODN2006 5 nM
T1 construct: host or cells: HEK-Blue cells
T1 sequence (Q9NR96 26-1032): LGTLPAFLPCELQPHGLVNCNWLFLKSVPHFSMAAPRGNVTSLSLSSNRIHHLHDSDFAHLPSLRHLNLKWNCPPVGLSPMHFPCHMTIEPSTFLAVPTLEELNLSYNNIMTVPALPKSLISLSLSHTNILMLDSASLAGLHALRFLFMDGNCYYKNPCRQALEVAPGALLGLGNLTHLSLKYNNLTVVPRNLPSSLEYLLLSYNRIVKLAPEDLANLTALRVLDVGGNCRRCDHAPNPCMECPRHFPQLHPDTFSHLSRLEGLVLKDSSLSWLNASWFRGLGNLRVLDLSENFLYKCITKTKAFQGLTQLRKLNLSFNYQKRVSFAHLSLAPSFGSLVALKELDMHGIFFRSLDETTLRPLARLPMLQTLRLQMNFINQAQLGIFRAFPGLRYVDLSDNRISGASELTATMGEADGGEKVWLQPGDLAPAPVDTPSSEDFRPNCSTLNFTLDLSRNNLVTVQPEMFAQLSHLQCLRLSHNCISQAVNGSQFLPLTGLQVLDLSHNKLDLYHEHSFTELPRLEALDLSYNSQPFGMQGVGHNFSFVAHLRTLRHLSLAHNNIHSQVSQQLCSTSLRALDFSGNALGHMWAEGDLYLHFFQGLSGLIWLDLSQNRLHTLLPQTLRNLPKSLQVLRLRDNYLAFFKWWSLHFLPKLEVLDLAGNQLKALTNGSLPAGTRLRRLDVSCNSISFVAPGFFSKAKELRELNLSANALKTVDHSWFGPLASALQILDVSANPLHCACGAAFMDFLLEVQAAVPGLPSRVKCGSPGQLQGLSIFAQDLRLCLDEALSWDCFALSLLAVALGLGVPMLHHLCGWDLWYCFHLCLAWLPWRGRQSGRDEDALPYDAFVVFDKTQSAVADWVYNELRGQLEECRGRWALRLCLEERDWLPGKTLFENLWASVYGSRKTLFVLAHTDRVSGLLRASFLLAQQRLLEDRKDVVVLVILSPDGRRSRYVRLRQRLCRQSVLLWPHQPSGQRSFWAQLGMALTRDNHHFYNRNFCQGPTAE
Summary of the method: (§1)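 Ligand levels differed by receptor: TLR7 got gardiquimod at 7.5 μM, TLR8 got R848 at 15.9 μM, and TLR9 got ODN2006 at 5 nM, each added after a 30-min room-temperature compound exposure. Incubation lasted 22 h at 37° C before colorimetric SEAP detection.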

human TLR8 = molecular target: T2, human TLR8 (Homo sapiens, UniProt Q9NR97); test: TLR8 inhibition reporter assay (HEK-Blue cells, SEAP reporter, R848 stimulation); settings: HEK-Blue cells overexpressing human TLR8, SEAP reporter, R848 15.9 μM
T2 construct: host or cells: HEK-Blue cells
T2 sequence (Q9NR97 27-1041): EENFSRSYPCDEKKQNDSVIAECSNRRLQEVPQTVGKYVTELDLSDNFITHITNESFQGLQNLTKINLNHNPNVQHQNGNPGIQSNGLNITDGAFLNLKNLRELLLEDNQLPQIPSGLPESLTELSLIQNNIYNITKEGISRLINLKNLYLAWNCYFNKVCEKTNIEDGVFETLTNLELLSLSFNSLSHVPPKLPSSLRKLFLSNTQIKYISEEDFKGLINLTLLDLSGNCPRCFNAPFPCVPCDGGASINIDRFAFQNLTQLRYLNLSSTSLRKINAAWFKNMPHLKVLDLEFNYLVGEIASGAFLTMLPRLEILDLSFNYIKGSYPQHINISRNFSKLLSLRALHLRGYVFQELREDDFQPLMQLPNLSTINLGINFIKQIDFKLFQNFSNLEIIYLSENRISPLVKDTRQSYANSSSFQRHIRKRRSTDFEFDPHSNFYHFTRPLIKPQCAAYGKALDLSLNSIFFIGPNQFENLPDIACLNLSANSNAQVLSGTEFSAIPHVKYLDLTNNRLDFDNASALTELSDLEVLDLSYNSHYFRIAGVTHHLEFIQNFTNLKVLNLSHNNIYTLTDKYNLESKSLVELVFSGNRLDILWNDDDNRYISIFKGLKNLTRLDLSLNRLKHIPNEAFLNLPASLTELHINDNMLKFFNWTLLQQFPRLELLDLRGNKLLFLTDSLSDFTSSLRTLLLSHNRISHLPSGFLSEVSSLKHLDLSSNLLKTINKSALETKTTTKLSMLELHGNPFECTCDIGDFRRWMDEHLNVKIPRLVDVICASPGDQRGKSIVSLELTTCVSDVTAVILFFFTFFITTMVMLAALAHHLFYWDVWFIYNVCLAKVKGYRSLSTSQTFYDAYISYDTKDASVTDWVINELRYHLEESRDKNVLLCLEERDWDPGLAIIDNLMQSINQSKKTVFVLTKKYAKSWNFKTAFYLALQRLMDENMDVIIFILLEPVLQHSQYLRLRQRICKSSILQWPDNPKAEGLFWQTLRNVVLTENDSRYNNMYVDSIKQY
Summary of the method: as §1

human TLR7 = molecular target: T3, human TLR7 (Homo sapiens, UniProt Q9NYK1); test: TLR7 inhibition reporter assay (HEK-Blue cells, SEAP reporter, gardiquimod stimulation); settings: HEK-Blue cells overexpressing human TLR7, SEAP reporter, gardiquimod 7.5 μM
T3 construct: host or cells: HEK-Blue cells
T3 sequence (Q9NYK1 27-1049): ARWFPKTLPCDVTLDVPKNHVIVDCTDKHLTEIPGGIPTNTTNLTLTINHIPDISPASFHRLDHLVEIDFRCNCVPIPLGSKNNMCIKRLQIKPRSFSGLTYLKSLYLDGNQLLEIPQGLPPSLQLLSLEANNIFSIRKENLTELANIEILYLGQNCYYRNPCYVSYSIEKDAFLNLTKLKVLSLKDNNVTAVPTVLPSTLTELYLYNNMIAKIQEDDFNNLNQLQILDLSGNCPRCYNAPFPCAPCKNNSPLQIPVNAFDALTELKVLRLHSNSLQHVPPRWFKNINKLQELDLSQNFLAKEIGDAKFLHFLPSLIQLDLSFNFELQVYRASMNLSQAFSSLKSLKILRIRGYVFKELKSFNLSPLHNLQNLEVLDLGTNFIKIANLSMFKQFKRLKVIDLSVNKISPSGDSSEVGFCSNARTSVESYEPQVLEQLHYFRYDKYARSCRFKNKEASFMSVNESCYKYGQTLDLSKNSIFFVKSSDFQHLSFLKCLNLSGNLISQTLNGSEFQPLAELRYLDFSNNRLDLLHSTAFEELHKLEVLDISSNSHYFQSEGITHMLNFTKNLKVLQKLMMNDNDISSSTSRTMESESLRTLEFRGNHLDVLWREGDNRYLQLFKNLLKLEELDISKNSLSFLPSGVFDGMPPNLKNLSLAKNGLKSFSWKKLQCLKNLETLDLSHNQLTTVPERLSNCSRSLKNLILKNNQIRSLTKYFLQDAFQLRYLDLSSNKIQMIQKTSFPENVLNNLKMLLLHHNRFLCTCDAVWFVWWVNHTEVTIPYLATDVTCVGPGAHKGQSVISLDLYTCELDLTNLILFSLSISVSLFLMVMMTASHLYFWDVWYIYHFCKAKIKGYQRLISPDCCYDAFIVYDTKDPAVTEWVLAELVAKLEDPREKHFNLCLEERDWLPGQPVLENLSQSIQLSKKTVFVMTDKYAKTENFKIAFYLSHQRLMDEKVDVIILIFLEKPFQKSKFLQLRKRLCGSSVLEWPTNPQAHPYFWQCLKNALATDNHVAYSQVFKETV
Summary of the method: as §1

| pIC50 (human TLR9) | pIC50 (human TLR8) | pIC50 (human TLR7) | SMILES |
| --- | --- | --- | --- |
| 4.47 | 9.14 | 8.46 | Cc1cc(-c2[nH]nc(C3CCC(N(C)C(=O)CN(C)C)CC3)c2C(C)C)cn2ncnc12 (stereo not drawn) [Example 296, 2-(dimethylamino)-N-(4-(4-isopropyl-5-(8-methyl-[1,2,4]triazolo[1,5-a]pyridin-6-yl)-1H-pyrazol-3-yl)cyclohexyl)-N-methylacetamide] |
| 4.65 | 7.41 | 8.17 | Cc1cc(-c2[nH]nc(C(=O)NCC3CN(C(C)C)CCO3)c2C(C)C)cn2ncnc12 (stereo not drawn) [Example 135] |
| 5.67 | 9.07 | 8.80 | COc1cc(-c2[nH]nc(C(=O)NC3CCN(C(C)C)CC3)c2C(C)C)cn2ncnc12 [Example 12] |
| 5.20 | 7.45 | 8.38 | Cc1cc(-c2[nH]nc(C(=O)NC3CCN(CCC(F)(F)F)CC3)c2C(C)C)cn2ncnc12 [Example 69, 4-isopropyl-5-(8-methyl-[1,2,4]triazolo[1,5-a]pyridin-6-yl)-N-(1-(3,3,3-trifluoropropyl)piperidin-4-yl)-1H-pyrazole-3-carboxamide] |
| 4.97 | 9.24 | 9.15 | Cc1cc(-c2c(C(C)C)c(C(=O)NC3CCN(C(C)C)CC3)nn2C)cn2ncnc12 [Example 188, 4-isopropyl-N-(1-isopropylpiperidin-4-yl)-1-methyl-5-(8-methyl-[1,2,4]triazolo[1,5-a]pyridin-6-yl)-1H-pyrazole-3-carboxamide] |
| 4.42 | < 5.51 | 5.89 | Cc1cc(-c2[nH]nc(-c3ccc(C4CCN(C)CC4)nn3)c2C(C)C)cn2ncnc12 [Example 357] |
| 5.55 | 9.41 | 9.24 | Cc1cc(-c2[nH]nc(C(=O)N[C@H]3CC[C@@H](NC(C)C(C)(C)C)CC3)c2C(C)C)cn2ncnc12 (stereo partly drawn) [Example 150] |
| 4.39 | 8.50 | 8.71 | Cc1cc(-c2[nH]nc(C(=O)N[C@H]3CC[C@@H](NCC4CCCC4)CC3)c2C(C)C)cn2ncnc12 [Example 94] |
| 4.73 | 8.03 | 8.42 | COc1cc(-c2[nH]nc(C(=O)NC3CCN(C)CC3)c2C(C)C)cn2ncnc12 [Example 11] |
| 5.00 | 8.49 | 7.97 | Cc1cc(-c2[nH]nc(C3CCC(N(C)C(=O)C4CN(C)C4)CC3)c2C(C)C)cn2ncnc12 (stereo not drawn) [Example 300, N-(4-(4-isopropyl-5-(8-methyl-[1,2,4]triazolo[1,5-a]pyridin-6-yl)-1H-pyrazol-3-yl)cyclohexyl)-N,1-dimethylazetidine-3-carboxamide] |
| 4.94 | 8.82 | 8.08 | CCCN1CC(c2ccc(-c3n[nH]c(-c4cc(OC)c5ncnn5c4)c3C(C)C)cc2)C1 [Example 330] |
| < 4.30 | 8.48 | 7.62 | Cc1cc(-c2[nH]nc(-c3cnc(C4CCNCC4)nc3)c2C(C)C)cn2ncnc12 [Example 343] |
| 5.39 | 8.63 | 9.51 | Cc1cc(-c2[nH]nc(C(=O)N[C@H]3CC[C@@H](NCC4CCOCC4)CC3)c2C(C)C)cn2ncnc12 [Example 92] |
| 4.73 | 8.52 | 8.74 | Cc1cc(-c2[nH]nc(C(=O)NCCN3CCOCC3)c2C(C)C)cn2ncnc12 [Example 3] |
| 5.53 | 8.86 | 9.92 | Cc1cc(-c2[nH]nc(C(=O)N[C@H]3CC[C@@H](NC4CCOCC4)CC3)c2C(C)C)cn2ncnc12 [Example 98] |
| 4.67 | 8.63 | 8.18 | CNC(=O)CN1CCC(NC(=O)c2n[nH]c(-c3cc(OC)c4ncnn4c3)c2CC(F)(F)F)CC1 [Example 205, 5-(8-methoxy-[1,2,4]triazolo[1,5-a]pyridin-6-yl)-N-(1-(2-(methylamino)-2-oxoethyl)piperidin-4-yl)-4-(2,2,2-trifluoroethyl)-1H-pyrazole-3-carboxamide] |
| 4.36 | 7.36 | 7.33 | Cc1cc(-c2[nH]nc(-c3ncc4c(n3)CCN(C(C)C)C4)c2C(C)C)cn2ncnc12 [Example 250] |
| 5.24 | 7.72 | 8.16 | Cc1cc(-c2[nH]nc(C(=O)NC3CCN(CCCC(F)(F)F)CC3)c2C(C)C)cn2ncnc12 [Example 71] |
| 6.67 | 8.72 | 7.74 | Cc1cc(-c2[nH]nc(C(N)=O)c2C(C)C)cn2ncnc12 [Example 29] |
| 4.94 | 7.36 | 7.60 | COc1cc(-c2[nH]nc(-c3cnc(C4CCN(C5CCC5)CC4)cn3)c2C(C)C)cn2ncnc12 [Example 387] |
| 4.69 | 7.80 | 8.59 | Cc1cc(-c2[nH]nc(C(=O)N[C@H]3CCCN(C)C3)c2C(C)C)cn2ncnc12 [Example 162] |
